These results are taken from patent publication US11753445B2, “Therapeutic peptides” (COHBAR, INC., priority 2016, dated 2023).

Peptide text beside a SMILES is read from it.

In the assay the test system is 3T3-L1 Adipocytes. As to the kind of experiment: Free fatty acid levels in cultured mouse 3T3-L1 adipocytes, isoproterenol stimulated (Example 2). Type of assay: cell-based. The settings on record: test peptides 25 μM; isoproterenol 1 nM. An outline of the steps: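 Release of free fatty acids, read at 540 nm, was stimulated with 1 nM isoproterenol for 3 h in mouse 3T3-L1 adipocytes (12–17 days of differentiation). Cells were pre-exposed to 25 μM peptide for 18–20 h plus 1 h, with peptide kept in during stimulation. Values are background-subtracted and normalised to isoproterenol alone.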
For the compound `CC[C@H](C)[C@H](NC(=O)[C@H](Cc1ccc(O)cc1)NC(=O)CNC(=O)[C@H](CCSC)NC(=O)[C@H](CCC(=O)O)NC(=O)[C@H](CCC(N)=O)NC(=O)[C@H](Cc1c[nH]c2ccccc12)NC(=O)[C@H](CCCNC(=N)N)NC(=O)[C@@H](N)CCSC)C(=O)N[C@@H](Cc1ccccc1)C(=O)N[C@@H](Cc1ccc(O)cc1)C(=O)N1CCC[C@H]1C(=O)N[C@@H](CCCNC(=N)N)C(=O)N[C@@H](CCCCN)C(=O)NC(CC)(CC)C(=O)N[C@@H](CCCNC(=N)N)C(=O)O` [compound 198] (HELM PEPTIDE1{M.R.W.Q.E.M.G.Y.I.F.Y.P.R.K.[CCC(CC)(N[*:1])C(=O)[*:2]].R}$$$$V2.0), the “Free Fatty Acid Levels in 3T3-L1 Adipocytes Expressed as a Percent of Isoproterenol Control: Percent of Control Value” is on record as 69.2%.
With `CC[C@H](C)[C@H](NC(=O)[C@H](Cc1ccc(O)cc1)NC(=O)CNC(=O)[C@H](CCSC)NC(=O)[C@H](CCC(=O)O)NC(=O)[C@H](CCC(N)=O)NC(=O)[C@H](Cc1c[nH]c2ccccc12)NC(=O)[C@H](CCCNC(=N)N)NC(=O)[C@H](CCSC)NC(C)=O)C(=O)N[C@@H](Cc1ccccc1)C(=O)N[C@@H](Cc1ccc(O)cc1)C(=O)N1CCC[C@H]1C(=O)N[C@@H](CCCNC(=N)N)C(=O)N[C@@H](CCCCN)C(=O)NC(CC)(CC)C(=O)N[C@@H](CCCNC(=N)N)C(=O)O` [compound 199] (HELM PEPTIDE1{[ac].M.R.W.Q.E.M.G.Y.I.F.Y.P.R.K.[CCC(CC)(N[*:1])C(=O)[*:2]].R}$$$$V2.0), the “Free Fatty Acid Levels in 3T3-L1 Adipocytes Expressed as a Percent of Isoproterenol Control: Percent of Control Value” is listed as 48.0%.
For the compound `CC[C@H](C)[C@H](NC(=O)[C@H](Cc1ccc(O)cc1)NC(=O)CNC(=O)[C@H](CCSC)NC(=O)[C@H](CCC(=O)O)NC(=O)[C@H](CCC(N)=O)NC(=O)[C@H](Cc1c[nH]c2ccccc12)NC(=O)[C@H](CCCNC(=N)N)NC(=O)[C@@H](N)CCSC)C(=O)N[C@@H](Cc1ccccc1)C(=O)N[C@@H](Cc1ccc(O)cc1)C(=O)N1CCC[C@H]1C(=O)N[C@@H](CCCNC(=N)N)C(=O)N[C@@H](CCCCN)C(=O)NC(CC)(CC)C(=O)N[C@@H](CCCNC(=N)N)C(N)=O` [compound 200] (HELM PEPTIDE1{M.R.W.Q.E.M.G.Y.I.F.Y.P.R.K.[CCC(CC)(N[*:1])C(=O)[*:2]].R.[am]}$$$$V2.0), the “Free Fatty Acid Levels in 3T3-L1 Adipocytes Expressed as a Percent of Isoproterenol Control: Percent of Control Value” turned out to be 80.2%.
The same measure for `CC[C@H](C)[C@H](NC(=O)[C@H](Cc1ccc(O)cc1)NC(=O)CNC(=O)[C@H](CCSC)NC(=O)[C@H](CCC(=O)O)NC(=O)[C@H](CCC(N)=O)NC(=O)[C@H](Cc1c[nH]c2ccccc12)NC(=O)[C@H](CCCNC(=N)N)NC(=O)[C@H](CCSC)NC(C)=O)C(=O)N[C@@H](Cc1ccccc1)C(=O)N[C@@H](Cc1ccc(O)cc1)C(=O)N1CCC[C@H]1C(=O)N[C@@H](CCCNC(=N)N)C(=O)N[C@@H](CCCCN)C(=O)NC(CC)(CC)C(=O)N[C@@H](CCCNC(=N)N)C(N)=O` [compound 201] (HELM PEPTIDE1{[ac].M.R.W.Q.E.M.G.Y.I.F.Y.P.R.K.[CCC(CC)(N[*:1])C(=O)[*:2]].R.[am]}$$$$V2.0): 92.8%.
The same measure for `CC[C@H](C)[C@@H]1NC(=O)[C@H](Cc2ccc(O)cc2)NC(=O)CNC(=O)[C@@H](NC(=O)[C@H](CCC(=O)O)NC(=O)[C@H](CCC(N)=O)NC(=O)[C@H](Cc2c[nH]c3ccccc23)NC(=O)[C@H](CCCNC(=N)N)NC(=O)[C@@H](N)CCSC)CSSC[C@@H](C(=O)N[C@@H](CCCNC(=N)N)C(=O)N[C@@H](CCCCN)C(=O)N[C@@H](CC(C)C)C(=O)N[C@@H](CCCNC(=N)N)C(=O)O)NC(=O)[C@H](Cc2ccc(O)cc2)NC(=O)[C@H](Cc2ccccc2)NC1=O` [compound 220] (HELM PEPTIDE1{M.R.W.Q.E.C.G.Y.I.F.Y.C.R.K.L.R}$PEPTIDE1,PEPTIDE1,6:R3-12:R3$$$V2.0): 70.5%; for `CC[C@H](C)[C@@H]1NC(=O)[C@H](Cc2ccc(O)cc2)NC(=O)CNC(=O)[C@@H](NC(=O)[C@H](CCC(=O)O)NC(=O)[C@H](CCC(N)=O)NC(=O)[C@H](Cc2c[nH]c3ccccc23)NC(=O)[C@H](CCCNC(=N)N)NC(=O)[C@@H](N)CCSC)CCC(=O)NCCCC[C@@H](C(=O)N[C@@H](CCCNC(=N)N)C(=O)N[C@@H](CCCCN)C(=O)N[C@@H](CC(C)C)C(=O)N[C@@H](CCCNC(=N)N)C(=O)O)NC(=O)[C@H](Cc2ccc(O)cc2)NC(=O)[C@H](Cc2ccccc2)NC1=O` [compound 221] (HELM PEPTIDE1{M.R.W.Q.E.E.G.Y.I.F.Y.K.R.K.L.R}$PEPTIDE1,PEPTIDE1,6:R3-12:R3$$$V2.0): 25.5%; for `CC[C@H](C)[C@@H]1NC(=O)[C@H](Cc2ccc(O)cc2)NC(=O)CNC(=O)[C@H](CCSC)NC(=O)[C@H](CCC(=O)O)NC(=O)[C@@H](NC(=O)[C@H](Cc2c[nH]c3ccccc23)NC(=O)[C@H](CCCNC(=N)N)NC(=O)[C@@H](N)CCSC)CCC(=O)NCCCC[C@@H](C(=O)N[C@@H](CCCNC(=N)N)C(=O)N[C@@H](CCCCN)C(=O)N[C@@H](CC(C)C)C(=O)N[C@@H](CCCNC(=N)N)C(=O)O)NC(=O)[C@H](Cc2ccc(O)cc2)NC(=O)[C@H](Cc2ccccc2)NC1=O` [compound 223] (HELM PEPTIDE1{M.R.W.E.E.M.G.Y.I.F.Y.K.R.K.L.R}$PEPTIDE1,PEPTIDE1,4:R3-12:R3$$$V2.0): 64.6%.
The same measure for `CC[C@H](C)[C@@H]1NC(=O)[C@H](Cc2ccc(O)cc2)NC(=O)CNC(=O)[C@H](CCSC)NC(=O)[C@@H](NC(=O)[C@H](CCC(N)=O)NC(=O)[C@H](Cc2c[nH]c3ccccc23)NC(=O)[C@H](CCCNC(=N)N)NC(=O)[C@@H](N)CCSC)CCC(=O)NCCCC[C@@H](C(=O)N[C@@H](CCCNC(=N)N)C(=O)N[C@@H](CCCCN)C(=O)N[C@@H](CC(C)C)C(=O)N[C@@H](CCCNC(=N)N)C(=O)O)NC(=O)[C@H](Cc2ccc(O)cc2)NC(=O)[C@H](Cc2ccccc2)NC1=O` [compound 224] (HELM PEPTIDE1{M.R.W.Q.E.M.G.Y.I.F.Y.K.R.K.L.R}$PEPTIDE1,PEPTIDE1,5:R3-12:R3$$$V2.0): 56.2%; for `CC[C@H](C)[C@@H]1NC(=O)[C@H](Cc2ccc(O)cc2)NC(=O)CNC(=O)[C@@H](NC(=O)[C@H](CCC(=O)O)NC(=O)[C@H](CCC(N)=O)NC(=O)[C@H](Cc2c[nH]c3ccccc23)NC(=O)[C@H](CCCNC(=N)N)NC(=O)[C@H](CCSC)NC(C)=O)CSSC[C@@H](C(=O)N[C@@H](CCCNC(=N)N)C(=O)N[C@@H](CCCCN)C(=O)N[C@@H](CC(C)C)C(=O)N[C@@H](CCCNC(=N)N)C(N)=O)NC(=O)[C@H](Cc2ccc(O)cc2)NC(=O)[C@H](Cc2ccccc2)NC1=O` [compound 225] (HELM PEPTIDE1{[ac].M.R.W.Q.E.C.G.Y.I.F.Y.C.R.K.L.R.[am]}$PEPTIDE1,PEPTIDE1,7:R3-13:R3$$$V2.0): 97.0%.
Turning to `CC[C@H](C)[C@@H]1NC(=O)[C@H](Cc2ccc(O)cc2)NC(=O)CNC(=O)[C@@H](NC(=O)[C@H](CCC(=O)O)NC(=O)[C@H](CCC(N)=O)NC(=O)[C@H](Cc2c[nH]c3ccccc23)NC(=O)[C@H](CCCNC(=N)N)NC(=O)[C@H](CCSC)NC(C)=O)CCC(=O)NCCCC[C@@H](C(=O)N[C@@H](CCCNC(=N)N)C(=O)N[C@@H](CCCCN)C(=O)N[C@@H](CC(C)C)C(=O)N[C@@H](CCCNC(=N)N)C(N)=O)NC(=O)[C@H](Cc2ccc(O)cc2)NC(=O)[C@H](Cc2ccccc2)NC1=O` [compound 226] (HELM PEPTIDE1{[ac].M.R.W.Q.E.E.G.Y.I.F.Y.K.R.K.L.R.[am]}$PEPTIDE1,PEPTIDE1,7:R3-13:R3$$$V2.0), the “Free Fatty Acid Levels in 3T3-L1 Adipocytes Expressed as a Percent of Isoproterenol Control: Percent of Control Value” was 79.8%.
The same measure for `CC[C@H](C)[C@@H]1NC(=O)[C@H](Cc2ccc(O)cc2)NC(=O)CNC(=O)[C@H](CCSC)NC(=O)[C@@H](NC(=O)[C@H](CCC(N)=O)NC(=O)[C@H](Cc2c[nH]c3ccccc23)NC(=O)[C@H](CCCNC(=N)N)NC(=O)[C@H](CCSC)NC(C)=O)CCC(=O)NCCCC[C@@H](C(=O)N[C@@H](CC(C)C)C(=O)N[C@@H](CCCNC(=N)N)C(N)=O)NC(=O)[C@H](CCCNC(=N)N)NC(=O)[C@@H]2CCCN2C(=O)[C@H](Cc2ccc(O)cc2)NC(=O)[C@H](Cc2ccccc2)NC1=O` [compound 227] (HELM PEPTIDE1{[ac].M.R.W.Q.E.M.G.Y.I.F.Y.P.R.K.L.R.[am]}$PEPTIDE1,PEPTIDE1,6:R3-15:R3$$$V2.0): 24.5%.
Take `CC[C@H](C)[C@@H]1NC(=O)[C@H](Cc2ccc(O)cc2)NC(=O)CNC(=O)[C@H](CCSC)NC(=O)[C@H](CCC(=O)O)NC(=O)[C@@H](NC(=O)[C@H](Cc2c[nH]c3ccccc23)NC(=O)[C@H](CCCNC(=N)N)NC(=O)[C@H](CCSC)NC(C)=O)CCC(=O)NCCCC[C@@H](C(=O)N[C@@H](CCCNC(=N)N)C(=O)N[C@@H](CCCCN)C(=O)N[C@@H](CC(C)C)C(=O)N[C@@H](CCCNC(=N)N)C(N)=O)NC(=O)[C@H](Cc2ccc(O)cc2)NC(=O)[C@H](Cc2ccccc2)NC1=O` [compound 228] (HELM PEPTIDE1{[ac].M.R.W.E.E.M.G.Y.I.F.Y.K.R.K.L.R.[am]}$PEPTIDE1,PEPTIDE1,5:R3-13:R3$$$V2.0): the “Free Fatty Acid Levels in 3T3-L1 Adipocytes Expressed as a Percent of Isoproterenol Control: Percent of Control Value” is on record as 69.9%.
For `CC[C@H](C)[C@H](NC(=O)[C@H](Cc1ccc(O)cc1)NC(=O)CNC(=O)[C@H](CCC(=O)O)NC(=O)[C@H](CCC(=O)O)NC(=O)[C@H](CCC(N)=O)NC(=O)[C@H](Cc1c[nH]c2ccccc12)NC(=O)[C@H](CCCNC(=N)N)NC(=O)[C@@H](C)N)C(=O)N[C@@H](Cc1ccccc1)C(=O)N[C@@H](Cc1ccc(O)cc1)C(=O)N1CCC[C@H]1C(=O)N[C@@H](CCCNC(=N)N)C(=O)N[C@@H](CCCCN)C(=O)N[C@@H](CC(C)C)C(=O)N[C@@H](C)C(=O)O` [compound 230] (HELM PEPTIDE1{[dA].R.W.Q.E.E.G.Y.I.F.Y.P.R.K.L.A}$$$$V2.0) the value was 94.5%.
